# Test results taken from patent US20160368943A1, “SUBSTITUTED PURINE COMPOUNDS” (EPIZYME, INC., priority 2013, published 2016).
# Where two headings read alike, the source gives them in different places.
# How the values were obtained:
# [1] = Pharmacokinetic study in mouse; format: in vivo, CD-1 mouse
# Procedure: Oral and IV doses were administered by oral gavage, or by tail vein injection in a 10% ethanol and 90% saline vehicle, respectively. For PO dosing, samples were taken at 0.167, 0.5, 1, 2, 4, 6 and 24 h p.d. For IV administration, samples were taken at 0.05, 0.167, 0.5, 1, 2, 4, 6 and 24 h p.d. Blood samples were centrifuged at 4° C. (2000 g, 5 minutes) to obtain plasma within 15 minutes after sample collection. The levels of Compound A were quantitated in mouse plasma by LC-MS/MS analysis. […] Typically, samples were injected onto an LC-MS/MS system using a Waters BEH Phenyl column. The aqueous mobile phase was water with 0.1% NH4OH (A), and the organic mobile phase was acetonitrile with 0.1% NH4OH (B). The gradient was as follows: 37% B for the first 0.2 min, increased to 44% B from 0.2 to 0.6 min, maintained at 44% B for 0.5 min, and decreased to 37% B within 0.05 min. The injection volume was 2 uL, and the total run time was 1.5 min with a flow rate of 0.6 mL/min. […] The ionization was conducted in the positive ion mode using the MRM transition [M+H]+m/z 563.5 parent ion to m/z 326.3 daughter ion, incorporating a turbo-ionspray interface. Eight to ten calibration standards were prepared in blank plasma of the relevant species providing a typical standard curve concentration range of 5-500 ng/mL. Pharmacokinetic parameters were calculated by noncompartmental methods using WinNonlin (version 5.3; Pharsight, St. Louis, Mo.). Parameters are presented as mean±S.D.
# [2] = Hepatocyte stability, dog; format: in vitro ADME, Beagle dog
# Procedure: Human, Beagle dog, Sprague-Dawley rat, and CD-1 mouse cryopreserved hepatocytes were obtained from XenoTech and stored at −150° C. until use. The hepatocytes were thawed and prepared according to the vendor's instructions, pooled into Krebs Henseleit buffer (KHB, pH 7.4), and kept on ice prior to initiating an experiment. […] The reaction mixture was incubated in a shaking water bath at 37° C. Aliquots of the incubation solutions were sampled at 0, 15, 30, 60, and 120 minutes. The reaction was immediately terminated by the addition of three volumes of ice-cold acetonitrile containing 0.1% formic acid and internal standards. After centrifugation at 1640×g for 10 minutes, the supernatants were transferred into HPLC vials, and the test compound was analyzed by LC-MS/MS. Positive controls, testosterone (20 μM) and 7-hydroxycoumarin (100 μM), were performed in parallel to confirm the enzyme activities of the hepatocytes used.
# Experimental half-lives were transformed to the corresponding intrinsic clearance values and subsequently scaled to predicted in vivo clearance values, using the well-stirred model as previously described (Houston, Biochemical Pharmacology 47(9): 1469-1479, 1994; Obach, Drug Metabolism and Disposition 27(11): 1350-1359, 1999), with appropriate species-specific scaling factors (Barter et al., Current Drug Metabolism 8(1): 33-45, 2007).
# [3] = male, CD-1, mouse, plasma, iv, 5 mg/kg, IV bolus
# [4] = male, plasma, CD-1 mouse, IV bolus, 5 mg/kg
# [5] = male, plasma, CD-1 mouse, PO, 20 mg/kg
structure (smiles),measurement,setting,value
"CC(C)N(C[C@H]1O[C@@H](n2cnc3c(N)ncnc32)[C@H](O)[C@@H]1O)[C@H]1C[C@@H](CCc2nc3cc(C(C)(C)C)ccc3[nH]2)C1 [Compound A, (2R,3R,4S,5R)-2-(6-amino-9H-purin-9-yl)-5-((((1r,3S)-3-(2-(5-(tert-butyl)-1H-benzo[d]imidazol-2-yl)ethyl)cyclobutyl)(isopropyl)amino)methyl)tetrahydrofuran-3,4-diol]",CL,"[1]; CD-1 mouse, IV bolus, 5 mg/kg",76.7 ± 11.5 mL/min/kg
same,t1/2,"[1]; CD-1 mouse, IV bolus, 5 mg/kg",68.4 ± 21 min
same,F,"[1]; CD-1 mouse, PO, 20 mg/kg",<1%
same,Vd,"[1]; male, CD-1, mouse, plasma, iv, 5 mg/kg, CD-1 mouse, IV bolus, 5 mg/kg, read-out: VDss",1.58 L/kg
same,clearance,[1]; [3],77 mL/min/kg
same,half-life,[1]; [3],66 min
same,Vd,"[1]; male, CD-1, mouse, plasma, iv, 5 mg/kg, mouse, read-out: Unbound VDss",11.4 L/kg
same,AUC(0-inf),[1]; [4],1.96 ± 0.3 µM·h
same,AUC(0-t),[1]; [4],1.95 ± 0.28 µM·h
same,Cmax,[1]; [4],7.99 ± 1.9 µM
same,MRT,[1]; [4],21 ± 3.6 min
same,Tmax,[1]; [4],3 min
same,AUC(0-t),[1]; [5],0.0014 µM·h
same,Cmax,[1]; [5],0.0019 µM
same,Tmax,[1]; [5],30 min
same,oral bioavailability (in words),"[1]; mouse, PO",low and negligible
same,Scaled Hepatic CL from hepatocytes,[2],21 mL/min/kg
same,hepatocyte CLint at 3 μM,"[2]; beagle, cryopreserved hepatocytes in suspension, pH 7.4, 3 μM",14.9 µL/min/1e6 cells
